Our source for the melting point values is patent US7851638B2, “Cyclohexanesulfonyl derivatives as GLYT1 inhibitors to treat schizophrenia” (Merck Sharp & Dohme Limited, priority 2005, dated 2010).

Structures are written as SMILES.

A word on the melting point: it is the temperature of the solid-liquid transition.

In the case of `Cc1nc(C(F)(F)F)ccc1C(=O)NCC1(CC2CC2)CCC(S(=O)(=O)CC2CC2)CC1` (stereo not shown) [Example 3, N-(4-Cyclopropylmethanesulfonyl-1-cyclopropylmethyl-cyclohexylmethyl)-2-methyl-6-trifluoromethyl-nicotinamide], the melting point was 148 to 151 °C.
